Results as given in EP4043466B1, “PRC2 INHIBITORS” (Mirati Therapeutics, Inc., priority 2018, dated 2019).

Each molecule was assayed against purified human, His-tagged PRC2 complex (Homo sapiens, UniProt O75530+Q15910) (assay: Hot Spot HMT assay: inhibition of PRC2 enzymatic activity (transfer of tritiated methyl from SAM to core histone, filter binding)). Conditions: Inhibition of PRC2-mediated enzymatic activity; 10 nM PRC2 complex, 0.05 mg/ml core histone H3, 1 uM 3H-SAM, 1 hr at 30°C.
Assay type: biochemical
Excerpt: The assay uses purified human, His-tagged PRC2 complex, including N-terminal His-tagged EZH2 enzyme, N-terminal Flag-tagged embryonic ectoderm development protein (EED), N-terminal His-tagged suppressor of zeste 12 (SUZ12), N-terminal His-tagged AEBP2, and N-terminal His-tagged RbAp48. In this assay, the transfer of the tritiated methyl group from radiolabeled S-adenosyl methionine (SAM) to purified core histone protein by EZH2 is quantitated after filtration to determine the activity of the core PRC2 complex in the presence and absence of compound.
The initial starting concentration for the serial dilutions of each compound was 1.0 µM. […] SAH (S-(5-adenosyl)-L-homocysteine) was used as a positive control for assay validation.
An aliquot of each serial dilution of test compound was added to deep 384 well plate using Acoustic Technology instrument (Echo 550, LabCyte) containing reaction buffer (50 mM Tris-HCl (pH 8.)), 0.01% Brij35, 1 mM EDTA, 1 mM DTT, 1 mM PMSF and 1% DMSO), 10 nM purified PRC2 complex and 0.05 mg/ml core histone H3 in a 5 µl volume. The reaction was mixed gently and then pre-incubated for 20 min at 30°C. The enzymatic reaction was initiated by adding 1 uM S-Adenosyl-L-[methyl - ^3H]methionine and incubated for 1 hr at 30°C. After 1 hr, the reaction product was detected using a filter binding method and the amount of tritiated H3 core histone was quantitated using a scintillation counter.

Chain of purified human, His-tagged PRC2 complex (Q15910 whole entry): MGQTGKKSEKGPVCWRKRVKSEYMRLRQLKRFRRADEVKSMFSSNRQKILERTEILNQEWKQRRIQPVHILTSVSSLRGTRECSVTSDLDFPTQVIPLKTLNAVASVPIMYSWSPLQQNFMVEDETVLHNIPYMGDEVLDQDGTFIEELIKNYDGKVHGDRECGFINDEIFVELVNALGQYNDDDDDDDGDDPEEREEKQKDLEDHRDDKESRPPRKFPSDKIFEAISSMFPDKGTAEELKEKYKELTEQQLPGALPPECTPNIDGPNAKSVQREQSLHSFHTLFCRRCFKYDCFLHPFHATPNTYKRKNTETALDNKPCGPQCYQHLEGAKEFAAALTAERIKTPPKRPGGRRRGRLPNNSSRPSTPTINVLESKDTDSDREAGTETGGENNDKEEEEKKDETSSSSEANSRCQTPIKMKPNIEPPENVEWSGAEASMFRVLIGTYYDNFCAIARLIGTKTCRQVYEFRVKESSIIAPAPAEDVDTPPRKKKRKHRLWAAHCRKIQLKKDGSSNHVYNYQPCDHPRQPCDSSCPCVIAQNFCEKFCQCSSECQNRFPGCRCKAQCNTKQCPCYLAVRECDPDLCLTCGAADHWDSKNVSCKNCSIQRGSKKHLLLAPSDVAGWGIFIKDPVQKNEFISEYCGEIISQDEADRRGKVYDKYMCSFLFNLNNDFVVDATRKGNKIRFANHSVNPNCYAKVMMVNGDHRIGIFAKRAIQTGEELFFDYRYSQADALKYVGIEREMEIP
Chain of purified human, His-tagged PRC2 complex (O75530 whole entry): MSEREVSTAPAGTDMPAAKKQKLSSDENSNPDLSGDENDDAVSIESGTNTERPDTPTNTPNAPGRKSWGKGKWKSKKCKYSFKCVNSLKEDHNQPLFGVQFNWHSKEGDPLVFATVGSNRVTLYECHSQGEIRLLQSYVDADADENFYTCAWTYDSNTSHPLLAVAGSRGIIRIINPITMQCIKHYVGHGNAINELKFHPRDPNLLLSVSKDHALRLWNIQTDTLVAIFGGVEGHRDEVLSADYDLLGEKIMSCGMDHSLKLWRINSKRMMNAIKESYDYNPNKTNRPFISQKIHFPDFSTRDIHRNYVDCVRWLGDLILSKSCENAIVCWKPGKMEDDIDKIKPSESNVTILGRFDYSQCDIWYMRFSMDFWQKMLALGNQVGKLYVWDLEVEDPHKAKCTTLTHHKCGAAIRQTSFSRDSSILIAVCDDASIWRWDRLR
Chain of purified human, His-tagged PRC2 complex (Q15022 whole entry partner): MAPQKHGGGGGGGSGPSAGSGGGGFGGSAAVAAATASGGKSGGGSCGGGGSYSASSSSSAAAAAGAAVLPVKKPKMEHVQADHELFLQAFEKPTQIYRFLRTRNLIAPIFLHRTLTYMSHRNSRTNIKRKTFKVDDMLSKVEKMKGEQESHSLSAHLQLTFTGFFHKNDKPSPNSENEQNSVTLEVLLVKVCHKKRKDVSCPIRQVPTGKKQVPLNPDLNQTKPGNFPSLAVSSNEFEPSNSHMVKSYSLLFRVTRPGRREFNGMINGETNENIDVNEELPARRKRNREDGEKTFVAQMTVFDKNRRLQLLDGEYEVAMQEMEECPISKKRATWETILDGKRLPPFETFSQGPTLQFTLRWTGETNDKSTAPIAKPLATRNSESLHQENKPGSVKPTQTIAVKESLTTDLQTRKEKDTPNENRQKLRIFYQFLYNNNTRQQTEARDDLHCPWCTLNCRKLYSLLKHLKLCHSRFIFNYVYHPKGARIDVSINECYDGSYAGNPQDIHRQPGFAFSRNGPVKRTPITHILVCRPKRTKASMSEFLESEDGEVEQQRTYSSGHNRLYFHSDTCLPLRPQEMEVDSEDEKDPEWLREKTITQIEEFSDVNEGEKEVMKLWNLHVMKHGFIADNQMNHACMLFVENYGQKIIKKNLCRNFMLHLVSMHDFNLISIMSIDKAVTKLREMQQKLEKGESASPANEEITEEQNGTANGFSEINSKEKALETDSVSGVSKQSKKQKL
Chain of purified human, His-tagged PRC2 complex (Q6ZN18 whole entry partner): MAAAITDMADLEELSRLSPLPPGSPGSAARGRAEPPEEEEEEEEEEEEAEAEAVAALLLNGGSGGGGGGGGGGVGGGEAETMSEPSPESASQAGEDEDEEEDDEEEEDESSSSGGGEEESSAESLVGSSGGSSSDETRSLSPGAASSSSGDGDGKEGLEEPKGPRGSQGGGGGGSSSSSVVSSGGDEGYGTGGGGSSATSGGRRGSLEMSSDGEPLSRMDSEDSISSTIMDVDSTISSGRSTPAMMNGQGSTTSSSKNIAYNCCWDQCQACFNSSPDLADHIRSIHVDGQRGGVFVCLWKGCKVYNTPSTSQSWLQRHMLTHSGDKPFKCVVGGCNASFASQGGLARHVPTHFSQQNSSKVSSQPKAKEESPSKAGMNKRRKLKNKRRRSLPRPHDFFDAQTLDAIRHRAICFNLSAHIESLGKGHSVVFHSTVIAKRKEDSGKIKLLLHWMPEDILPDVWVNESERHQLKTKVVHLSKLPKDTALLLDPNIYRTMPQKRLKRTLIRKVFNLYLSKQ
Chain of purified human, His-tagged PRC2 complex (Q09028 whole entry partner): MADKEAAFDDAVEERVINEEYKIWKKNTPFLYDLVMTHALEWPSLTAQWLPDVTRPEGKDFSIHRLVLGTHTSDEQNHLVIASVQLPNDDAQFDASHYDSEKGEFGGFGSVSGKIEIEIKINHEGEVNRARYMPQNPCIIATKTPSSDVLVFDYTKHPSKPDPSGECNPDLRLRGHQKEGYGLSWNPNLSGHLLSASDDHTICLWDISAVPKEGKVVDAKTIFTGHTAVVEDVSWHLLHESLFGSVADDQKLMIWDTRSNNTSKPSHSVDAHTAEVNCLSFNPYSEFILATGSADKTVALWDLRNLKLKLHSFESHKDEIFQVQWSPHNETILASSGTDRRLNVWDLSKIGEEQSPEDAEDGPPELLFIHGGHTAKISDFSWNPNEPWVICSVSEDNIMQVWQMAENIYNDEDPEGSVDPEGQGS

Which IC50 does the source give for “5-(((5-fluoro-2,3-dihydrobenzofuran-4-yl)methyl)amino)-8-(4-methyl-1H-imidazol-1-yl)imidazo[1,2-c]pyrimidine-2-carboxamide [Example 17]” here?
Its IC50 is 100 to 500 nM.

With “8-(1,3-dimethyl-1H-pyrazol-5-yl)-5-(((6-fluorochroman-5-yl)methyl)amino)imidazo[1,2-c]pyrimidine-2-carbonitrile [Example 122]” as the molecule, how does the IC50 read?
Its IC50 is > 500 nM.

Which IC50 does the source give for Cc1cn(-c2cnc(NCc3c(F)ccc4c3CCO4)n3cc(C(=O)O)nc23)cn1 [Example 4, 5-(((5-fluoro-2,3-dihydrobenzofuran-4-yl)methyl)amino)-8-(4-methyl-1H-imidazol-1-yl)imidazo[1,2-c]pyrimidine-2-carboxylic acid] here?
Its IC50 is < 100 nM.

For COc1cc(C)c(-c2cnc(NCc3c(F)ccc4c3CCO4)n3cc(C(=O)O)nc23)cn1 [Example 6, 5-(((5-fluoro-2,3-dihydrobenzofuran-4-yl)methyl)amino)-8-(6-methoxy-4-methylpyridin-3-yl)imidazo[1,2-c]pyrimidine-2-carboxylic acid], which IC50 is on record?
Its IC50 is 100 to 500 nM.

Cc1c(-c2cnc(NCc3c(F)ccc4c3CCO4)n3cc(C(=O)O)nc23)cnn1C(C)C [Example 8, 5-(((5-fluoro-2,3-dihydrobenzofuran-4-yl)methyl)amino)-8-(1-isopropyl-5-methyl-1H-pyrazol-4-yl)imidazo[1,2-c]pyrimidine-2-carboxylic acid] was tested. Which IC50 did it give?
Its IC50 is < 100 nM.

With Cc1cc(-c2cnc(NCc3cccc4c3CCO4)n3cc(C(=O)O)nc23)n(C)n1 [Example 10, 5-(((2,3-dihydrobenzofuran-4-yl)methyl)amino)-8-(1,3-dimethyl-1H-pyrazol-5-yl)imidazo[1,2-c]pyrimidine-2-carboxylic acid] as the molecule, how does the IC50 read?
Its IC50 is < 100 nM.

With COc1cc(C)c(-c2cnc(NCc3c(F)ccc4c3CCO4)n3cc(C(N)=O)nc23)cn1 [Example 14, 5-(((5-fluoro-2,3-dihydrobenzofuran-4-yl)methyl)amino)-8-(6-methoxy-4-methylpyridin-3-yl)imidazo[1,2-c]pyrimidine-2-carboxamide] as the molecule, how does the IC50 read?
Its IC50 is 100 to 500 nM.

For Cc1nc(C2CC2)ncc1-c1cnc(NCc2c(F)ccc3c2CCO3)n2cc(C(N)=O)nc12 [Example 15, 8-(2-cyclopropyl-4-methylpyrimidin-5-yl)-5-(((5-fluoro-2,3-dihydrobenzofuran-4-yl)methyl)amino)imidazo[1,2-c]pyrimidine-2-carboxamide], which IC50 is on record?
Its IC50 is 100 to 500 nM.

With Cc1cc(-c2cnc(NCc3c(F)ccc4occc34)n3cc(C(N)=O)nc23)n(C)n1 [Example 18, 8-(1,3-dimethyl-1H-pyrazol-5-yl)-5-(((5-fluorobenzofuran-4-yl)methyl)amino)imidazo[1,2-c]pyrimidine-2-carboxamide] as the molecule, how does the IC50 read?
The IC50 was < 100 nM.

How did the IC50 turn out when Cc1ncccc1-c1cnc(NCc2c(F)ccc3occc23)n2cc(C#N)nc12 [Example 22, 5-(((5-fluorobenzofuran-4-yl)methyl)amino)-8-(2-methylpyridin-3-yl)imidazo[1,2-c]pyrimidine-2-carbonitrile] was run?
Its IC50 is 100 to 500 nM.

Which IC50 does the source give for Cc1nn(C(C)C)cc1-c1cnc(NCc2c(F)ccc3c2CCO3)n2cc(C#N)nc12 [Example 23, 5-(((5-fluoro-2,3-dihydrobenzofuran-4-yl)methyl)amino)-8-(1-isopropyl-3-methyl-1H-pyrazol-4-yl)imidazo[1,2-c]pyrimidine-2-carbonitrile] here?
The IC50 was 100 to 500 nM.

How did the IC50 turn out when COc1cc(C)c(-c2cnc(NCc3c(F)ccc4c3CCO4)n3cc(C#N)nc23)cn1 [Example 24, 5-(((5-fluoro-2,3-dihydrobenzofuran-4-yl)methyl)amino)-8-(6-methoxy-4-methylpyridin-3-yl)imidazo[1,2-c]pyrimidine-2-carbonitrile] was run?
Its IC50 is 100 to 500 nM.

How did the IC50 turn out when Cc1c(-c2cnc(NCc3c(F)ccc4c3CCO4)n3cc(C#N)nc23)cnn1C(C)C [Example 26, 5-(((5-fluoro-2,3-dihydrobenzofuran-4-yl)methyl)amino)-8-(1-isopropyl-5-methyl-1H-pyrazol-4-yl)imidazo[1,2-c]pyrimidine-2-carbonitrile] was run?
Its IC50 is 100 to 500 nM.
